The values that follow come from patent publication US8877707B2, “Inhibitors of HCV NS5A” (Presidio Pharmaceuticals, Inc., priority 2010, dated 2014).

This experiment has as its system HCV genotype 1b replicon in Huh 7 cells. The experiment can be described thus: HCV replicon assay (1b_Huh-Luc/Neo-ET cell line, luciferase readout). It is filed as cell-based. Conditions: Hepatitis C virus; Table 1; genotype 1b replicon, Huh 7 cells, 72 h, luciferase; read-out: Inhibition of HCV genotype 1b. In a few lines: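 Huh 7 cells carrying a bicistronic genotype 1b luciferase replicon were treated with compound in triplicate the day after plating and incubated 72 h. Luciferase activity expressed as % of untreated control; EC50 from a four-parameter logistic fit, repeated several times.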

Consider `COC(=O)N[C@H](C(=O)N1CCC[C@H]1c1ncc(-c2ccc(-c3nc4ccc(-c5cnc([C@@H]6CCCN6C(=O)[C@@H](NC(=O)OC)[C@@H](C)OC)[nH]5)cc4o3)cc2)[nH]1)C(C)C` [compound 253], for which the EC50 is below 1 nM.
Turning to `COC(=O)N[C@H](C(=O)N1CCC[C@H]1c1ncc(-c2ccc3nc(-c4ccc(-c5cnc([C@@H]6CCCN6C(=O)[C@H](NC(=O)OC(C)(C)C)c6ccccc6)[nH]5)cc4)oc3c2)[nH]1)C(C)C` [compound 254], the EC50 is below 1 nM.
For `COC(=O)N[C@H](C(=O)N1CCC[C@H]1c1ncc(-c2ccc3nc(-c4ccc(-c5cnc([C@@H]6CCCN6C(=O)[C@H](NC(=O)OC)c6ccccc6)[nH]5)cc4)oc3c2)[nH]1)C(C)C` [compound 255], the EC50 was below 1 nM.
Take `CNC(=O)N[C@@H](C(=O)N1CCC[C@H]1c1ncc(-c2ccc(-c3nc4ccc(-c5cnc([C@@H]6CCCN6C(=O)[C@@H](NC(=O)OC)C(C)C)[nH]5)cc4o3)cc2)[nH]1)c1ccccc1` [compound 256]: the EC50 was below 1 nM.
In the case of `CCNC(=O)N[C@@H](C(=O)N1CCC[C@H]1c1ncc(-c2ccc(-c3nc4ccc(-c5cnc([C@@H]6CCCN6C(=O)[C@@H](NC(=O)OC)C(C)C)[nH]5)cc4o3)cc2)[nH]1)c1ccccc1` [compound 257], the EC50 is below 1 nM.
Consider `COC(=O)N[C@H](C(=O)N1CCC[C@H]1c1ncc(-c2ccc(-c3ccc4nc(-c5cnc([C@@H]6CCCN6C(=O)[C@@H](NC(=O)OC)C(C)C)[nH]5)sc4c3)cc2)[nH]1)C(C)C` [compound 258], for which the EC50 is below 1 nM.
Turning to `COC(=O)N[C@H](C(=O)N1CCC[C@H]1c1ncc(-c2ccc3oc(-c4ccc(-c5cnc([C@@H]6CCCN6C(=O)[C@@H](NC(=O)OC)C6CCOCC6)[nH]5)cc4)nc3c2)[nH]1)C(C)C` [compound 259], the EC50 was below 1 nM.
Take `COC(=O)N[C@H](C(=O)N1CCC[C@H]1c1ncc(-c2ccc3oc(-c4ccc(-c5cnc([C@@H]6CCCN6C(=O)[C@H](NC(=O)OC)c6ccccc6)[nH]5)cc4)nc3c2)[nH]1)C(C)C` [compound 260]: the EC50 was below 1 nM.
The same measure for `COC(=O)N[C@H](C(=O)N1CCC[C@H]1c1ncc(-c2ccc3ccc(C45CCC(c6cnc([C@@H]7CCCN7C(=O)[C@@H](NC(=O)OC)C(C)C)[nH]6)(CC4)CC5)cc3c2)[nH]1)C(C)C` [compound 261]: 1 to 9.9 nM; for `COC(=O)N[C@H](C(=O)N1CCC[C@H]1c1nc(-c2ccc3nc(C45CCC(c6cnc([C@@H]7CCCN7C(=O)[C@@H](NC(=O)OC)C(C)C)[nH]6)(CC4)CC5)ccc3c2)c[nH]1)C(C)C` [compound 262]: below 1 nM; for `COC(=O)N[C@@H](C(=O)N1CCC[C@H]1c1nc(-c2ccc3nc(C45CCC(c6cnc([C@@H]7CCCN7C(=O)[C@H](NC(=O)OC)c7ccccc7)[nH]6)(CC4)CC5)ccc3c2)c[nH]1)c1ccccc1` [compound 263]: below 1 nM.
For `CN(C)[C@@H](C(=O)N1CCC[C@H]1c1nc(-c2ccc3nc(C45CCC(c6cnc([C@@H]7CCCN7C(=O)[C@@H](c7ccccc7)N(C)C)[nH]6)(CC4)CC5)ccc3c2)c[nH]1)c1ccccc1` [compound 264], the EC50 lay in the range of 1 to 9.9 nM.
With `COC(=O)N[C@H](C(=O)N1CCC[C@H]1c1nc(-c2ccc3nc(C45CCC(c6cnc([C@@H]7CCCN7C(=O)[C@@H](NC(=O)OC)C7CC7)[nH]6)(CC4)CC5)ccc3c2)c[nH]1)C1CC1` [compound 265], the EC50 was below 1 nM.
Regarding `COC(=O)N[C@@H](C)C(=O)N1CCC[C@H]1c1nc(-c2ccc3nc(C45CCC(c6cnc([C@@H]7CCCN7C(=O)[C@H](C)NC(=O)OC)[nH]6)(CC4)CC5)ccc3c2)c[nH]1` [compound 266], the EC50 was below 1 nM.
Take `c1cc2nc(C34CCC(c5cnc([C@@H]6CCCN6)[nH]5)(CC3)CC4)ccc2cc1-c1c[nH]c([C@@H]2CCCN2)n1` [compound 267]: the EC50 is above 1000 nM.
Take `CC(C)(C)OC(=O)N1CCCC1c1ncc(C23CCC(c4ccc5cc(-c6c[nH]c([C@@H]7CCCN7C(=O)OC(C)(C)C)n6)ccc5n4)(CC2)CC3)[nH]1` (stereo partly drawn) [compound 268]: the EC50 fell in the range of 10 to 999 nM.
In the case of `COC(=O)N[C@H](C(=O)N1CCC[C@H]1c1nc(-c2ccc3c(c2)CCN(c2c(F)cc(-c4cnc([C@@H]5CCCN5C(=O)[C@@H](NC(=O)OC)C(C)C)[nH]4)cc2F)C3)c[nH]1)C(C)C` [compound 269], the EC50 is below 1 nM.
With `COC(=O)N[C@@H](C(=O)N1CCC[C@H]1c1nc(-c2ccc3c(c2)CCN(c2c(F)cc(-c4cnc([C@@H]5CCCN5C(=O)[C@H](NC(=O)OC)c5ccccc5)[nH]4)cc2F)C3)c[nH]1)c1ccccc1` [compound 270], the EC50 was below 1 nM.
On to `COC(=O)N[C@H](C(=O)N1CCC[C@H]1c1nc(-c2ccc3c(c2)CCN(c2c(F)cc(-c4cnc([C@@H]5CCCN5C(=O)[C@@H](NC(=O)OC)C5CC5)[nH]4)cc2F)C3)c[nH]1)C1CC1` [compound 271], for which the EC50 is below 1 nM.
With `COC(=O)N[C@@H](C)C(=O)N1CCC[C@H]1c1nc(-c2ccc3c(c2)CCN(c2c(F)cc(-c4cnc([C@@H]5CCCN5C(=O)[C@H](C)NC(=O)OC)[nH]4)cc2F)C3)c[nH]1` [compound 272], the EC50 is below 1 nM.
In the case of `COC(=O)N[C@@H](C)C(=O)N1CCC[C@H]1c1nc(-c2ccc3nc(N4CCC(c5cnc([C@@H]6CCCN6C(=O)[C@H](C)NC(=O)OC)[nH]5)CC4)ccc3c2)c[nH]1` [compound 273], the EC50 fell in the range of 1 to 9.9 nM.
Regarding `COC(=O)N[C@H](C(=O)N1CCC[C@H]1c1nc(-c2ccc3nc(N4CCC(c5cnc([C@@H]6CCCN6C(=O)[C@@H](NC(=O)OC)C6CC6)[nH]5)CC4)ccc3c2)c[nH]1)C1CC1` [compound 274], the EC50 was 1 to 9.9 nM.
As to `COC(=O)N[C@H](C(=O)N1CCC[C@H]1c1nc(-c2ccc3nc(N4CCC(c5cnc([C@@H]6CCCN6C(=O)[C@@H](NC(=O)OC)C(C)C)[nH]5)CC4)ccc3c2)c[nH]1)C(C)C` [compound 275], the EC50 was below 1 nM.
The same measure for `COC(=O)N[C@H](C(=O)N1CCC[C@H]1c1nc2ccc(-c3ccc4cc(-c5ccc6nc([C@@H]7CCCN7C(=O)[C@@H](NC(=O)OC)C(C)C)[nH]c6c5)ccc4c3)cc2[nH]1)C(C)C` [compound 276]: below 1 nM.
Consider `COC(=O)N[C@H](C(=O)N1CCC[C@H]1c1nc2ccc(-c3cccc4c(-c5ccc6nc([C@@H]7CCCN7C(=O)[C@@H](NC(=O)OC)C(C)C)[nH]c6c5)cccc34)cc2[nH]1)C(C)C` [compound 277], for which the EC50 is below 1 nM.
With `COC(=O)N[C@@H](C)C(=O)N1CCC[C@H]1c1nc2ccc(-c3ccc4cc(-c5ccc6nc([C@@H]7CCCN7C(=O)[C@H](C)NC(=O)OC)[nH]c6c5)ccc4c3)cc2[nH]1` [compound 278], the EC50 is below 1 nM.
Consider `COC(=O)N[C@H](C(=O)N1CCC[C@H]1c1nc2ccc(-c3ccc4cc(-c5ccc6nc([C@@H]7CCCN7C(=O)[C@@H](NC(=O)OC)C7CCOCC7)[nH]c6c5)ccc4c3)cc2[nH]1)C1CCOCC1` [compound 279], for which the EC50 was below 1 nM.
The same measure for `COC(=O)N[C@H](C(=O)N1CCC[C@H]1c1nc2ccc(-c3ccc4nc(-c5ccc6nc([C@@H]7CCCN7C(=O)[C@@H](NC(=O)OC)C(C)C)[nH]c6c5)ccc4c3)cc2[nH]1)C(C)C` [compound 280]: below 1 nM.
Take `COC(=O)N[C@H](C(=O)N1CCC[C@H]1c1nc2ccc(-c3ccc4cc(-c5ccc6nc([C@@H]7CCCN7C(=O)[C@@H](NC(=O)OC)C(C)C)[nH]c6c5)ncc4c3)cc2[nH]1)C(C)C` [compound 281]: the EC50 is below 1 nM.
Consider `COC(=O)N[C@H](C(=O)N1CCC[C@H]1c1nc2ccc(-c3ccc4cc(-c5ccc6nc([C@@H]7CCCN7C(=O)[C@@H](NC(=O)OC)C7CCOCC7)[nH]c6c5)ccc4c3)cc2[nH]1)C(C)C` [compound 282], for which the EC50 was below 1 nM.
Regarding `COC(=O)N[C@H](C(=O)N1CCC[C@H]1c1nc2ccc(-c3ccc4cc(-c5ccc6nc([C@@H]7CCCN7C(=O)[C@H](NC(=O)OC)c7ccccc7)[nH]c6c5)ccc4c3)cc2[nH]1)C(C)C` [compound 283], the EC50 was below 1 nM.
The result for `COC(=O)N[C@H](C(=O)N1CCC[C@H]1c1nc2ccc(-c3ccc4cc(-c5ccc6nc([C@@H]7CCCN7C(=O)[C@@H](NC(=O)OC)C7CCOCC7)[nH]c6n5)ccc4c3)nc2[nH]1)C1CCOCC1` [compound 284] reads 1 to 9.9 nM; that for `COC(=O)N[C@@H](C(=O)N1CCC[C@H]1c1nc(-c2ccc3nc(C4CCC(c5cnc([C@@H]6CCCN6C(=O)[C@H](NC(=O)OC)c6ccccc6)[nH]5)CC4)ccc3c2)c[nH]1)c1ccccc1` (stereo partly drawn) [compound 286], below 1 nM; that for `COC(=O)N[C@H](C(=O)N1CCC[C@H]1c1nc(-c2ccc3c(=O)n(-c4ccc(-c5cnc([C@@H]6CCCN6C(=O)[C@@H](NC(=O)OC)C(C)C)[nH]5)cc4)ccc3c2)c[nH]1)C(C)C` [compound 287], below 1 nM.
The same measure for `COC(=O)N[C@@H](C(=O)N1CCC[C@H]1c1nc(-c2ccc3c(=O)n(-c4ccc(-c5cnc([C@@H]6CCCN6C(=O)[C@H](NC(=O)OC)c6ccccc6)[nH]5)cc4)ccc3c2)c[nH]1)c1ccccc1` [compound 288]: below 1 nM.
Turning to `COC(=O)N[C@@H](C(=O)N1CCC[C@H]1c1nc(-c2ccc3c(c2)CCN(c2ccc(-c4cnc([C@@H]5CCCN5C(=O)[C@H](NC(=O)OC)c5ccccc5)[nH]4)cc2)C3=O)c[nH]1)c1ccccc1` [compound 289], the EC50 was below 1 nM.
Regarding `COC(=O)N[C@H](C(=O)N1CCC[C@H]1c1ncc(-c2ccc(N3Cc4cc(-c5cnc([C@@H]6CCCN6C(=O)[C@@H](NC(=O)OC)C(C)C)[nH]5)ccc4C3=O)cc2)[nH]1)C(C)C` [compound 290], the EC50 is below 1 nM.
With `COC(=O)N[C@H](C(=O)N1CCC[C@H]1c1nc(C2CNc3cc(-c4ccc(-c5cnc([C@@H]6CCCN6C(=O)[C@H](NC(=O)OC6CCOCC6)c6ccccc6)[nH]5)cc4)ccc3C2)c[nH]1)C(C)C` (stereo partly drawn) [compound 291], the EC50 is below 1 nM.
As for `COC(=O)N[C@H](C(=O)N1CCC[C@H]1c1ncc(-c2ccc3nc(-c4ccc5c(ccc6nc([C@@H]7CCCN7C(=O)[C@@H](NC(=O)OC)C(C)C)[nH]c65)c4)ccc3c2)[nH]1)C(C)C` [compound 296], the EC50 was below 1 nM.
